The source of these data is patent US20260013502A1, “METHOD FOR TERMINATING COVER CROP GROWTH” (SUMITOMO CHEMICAL COMPANY, LIMITED, priority 2022, published 2026).

Assay [1] relates to cereal rye (Secale cereale). As to the kind of experiment: Example 7: greenhouse pot test, foliar application, termination of cereal rye growth. The class given is in vivo. Particulars: cereal rye, greenhouse; death of terminal and lateral buds in all 3 pots; epyrifenacil/saflufenacil 25 g/ha applied 21 days after seeding, glyphosate-potassium salt 1,543 g/ha applied 15 days after seeding. How it is done:
A plastic pot was filled with soil, and cereal rye (Secale cereale) was seeded and grown in a greenhouse. Fifteen days after seeding, RoundupPowerMax was diluted with water, and then the cereal rye was subjected to foliar application from above using an automatic sprayer at a spray volume of 200 L/ha to achieve an application rate of 1,543 g/ha as glyphosate-potassium salt.
At the same time, the cereal rye was similarly seeded in another plastic pot and grown. Twenty-one days after seeding, epyrifenacil emulsifiable concentrate (55 g/L) or saflufenacil suspension (341 g/L) was diluted with water containing 1% (v/v) adjuvant Agri-Dex, and then the cereal rye was subjected to foliar application from above using an automatic sprayer at a spray volume of 200 L/ha to achieve an application rate of 25 g/ha.
After application with the herbicide, the cereal rye was grown in a greenhouse, and in case the growth was terminated, the above-ground parts were harvested at termination of the growth and the dry matter weight was measured. In this test, the growth was judged to be terminated when death of terminal and lateral buds was visually confirmed. The date at the beginning of the onset of effect, the growth termination date, and the dry matter weight at the time of growth termination are shown in Table 1. The onset of the effect was judged by visually observing the change in leaf color. Application with each herbicide was performed using three pots. The date at the beginning of the onset of effect and the growth termination date in the table were dates on which the onset of effect and growth termination were confirmed in all three pots, respectively. The dry matter weight was the average of the three pots.

Assay [2] has as its system cereal rye (Secale cereale). As to the kind of experiment: Example 9: outdoor pot test, foliar application, termination of cereal rye growth. The class given is in vivo. Particulars: cereal rye, outdoors, applied 24 days after seeding, epyrifenacil/saflufenacil 20 g/ha, glyphosate-potassium salt 1,543 g/ha. On the procedure: A plastic pot was filled with soil, and cereal rye (Secale cereale) was seeded and grown outdoors. Twenty-four days after seeding, RoundupPowerMax was diluted with water, and then the cereal rye was subjected to foliar application from above using an automatic sprayer at a spray volume of 200 L/ha to achieve an application rate of 1,543 g/ha as glyphosate-potassium salt.
At the same time, the cereal rye was similarly seeded in another plastic pot and grown. Twenty-four days after seeding, epyrifenacil emulsifiable concentrate (55 g/L) or saflufenacil suspension (341 g/L) was diluted with water containing 1% (v/v) adjuvant Agri-Dex, and then the cereal rye was subjected to foliar application from above using an automatic sprayer at a spray volume of 200 L/ha to achieve an application rate of 20 g/ha.
At the same time, the cereal rye was similarly seeded in another plastic pot and grown. Twenty-four days after seeding, the above-ground parts were harvested and the dry matter weight (hereinafter referred to as untreated dry matter weight) was measured.
The cereal rye applied with the herbicide was grown outdoors after application with the herbicide, and in case the growth was terminated, the above-ground parts were harvested at termination of the growth and the dry matter weight was measured. In this test, the growth was judged to be terminated when death of terminal and lateral buds was visually confirmed. The date at the beginning of the onset of effect, the growth termination date, and the dry matter weight at the time of growth termination are shown in Table 3. The onset of the effect was judged by visually observing the change in leaf color. Application with each herbicide was performed using seven pots. The date at the beginning of the onset of effect and the growth termination date in the table were dates on which the onset of effect and growth termination were confirmed in all seven pots, respectively. The incremental dry matter weight was the value calculated by the following formula (1).
Incremental dry matter weight=average dry matter weight at the time of growth termination−average untreated dry matter weight 24 days after seeding Formula (1): • Average dry matter weight at the time of growth termination: average value of dry matter weights of 7 pots at the time of growth termination • Average untreated dry matter weight 24 days after seeding: average value of untreated dry matter weights of 7 pots

`CC(C)N(C)S(=O)(=O)NC(=O)c1cc(-n2c(=O)cc(C(F)(F)F)n(C)c2=O)c(F)cc1Cl` [Saflufenacil, saflufenacil]: the Growth termination date result in assay [1] is “failed to terminate the growth”; in assay [2] (death of terminal and lateral buds in all 7 pots), “failed to terminate the growth”. Moreover, the “Date at the beginning of the onset of effect” value in assay [2] (visual change in leaf color in all 7 pots, day relative to application) is recorded as “Day after”.
